ChEMBL document CHEMBL5537143, “Synthesis and antimicrobial properties of guanidine-functionalized labdane type diterpenoids” (Eur J Med Chem, 2024)
Converted amounts (≈) assume the structure as drawn.

Columns and labels:
Assay type in all cases: functional
Klebsiella pneumoniae [1] = test: Antimicrobial activity against Klebsiella pneumoniae ATCC BAA1705 assessed as inhibition of microbial growth incubated for 24 hrs by broth-microdilution assay; conditions: for MIC: read-out: MIC100
Candida albicans [2] = test: Antifungal activity against Candida albicans ATCC 10231 assessed as reduction in fungal growth incubated for 48 hrs by CLSI based analysis; conditions: read-out: MIC100
Candida albicans [3] = test: Antifungal activity against Candida albicans ATCC 90028 assessed as reduction in fungal growth incubated for 48 hrs by CLSI based analysis
[4] = tested on: Staphylococcus epidermidis; test: Antimicrobial activity against Staphylococcus epidermidis ATCC 35984 assessed as inhibition of microbial growth incubated for 24 hrs by broth-microdilution assay; conditions: Staphylococcus epidermidis
Klebsiella pneumoniae [5] = test: Antimicrobial activity against Klebsiella pneumoniae ATCC 13883 assessed as inhibition of microbial growth incubated for 24 hrs by broth-microdilution assay; conditions: read-out: MIC100
Pseudomonas aeruginosa [6] = test: Antimicrobial activity against Pseudomonas aeruginosa ATCC 27853 assessed as inhibition of microbial growth incubated for 24 hrs by broth-microdilution assay; conditions: Pseudomonas aeruginosa, ATCC 27853, read-out: MIC100
Staphylococcus aureus [7] = test: Antimicrobial activity against Staphylococcus aureus ATCC 43300 assessed as inhibition of microbial growth incubated for 24 hrs by broth-microdilution assay; conditions: Staphylococcus aureus, ATCC 43300, read-out: MIC100
[8] = tested on: Staphylococcus epidermidis; test: Antimicrobial activity against Staphylococcus epidermidis ATCC 12228 assessed as inhibition of microbial growth incubated for 24 hrs by broth-microdilution assay; conditions: Staphylococcus epidermidis
Staphylococcus aureus [9] = test: Antimicrobial activity against Staphylococcus aureus ATCC 29213 assessed as inhibition of microbial growth incubated for 24 hrs by broth-microdilution assay; conditions: Staphylococcus aureus, ATCC 29213, read-out: MIC100
Pseudomonas aeruginosa [10] = test: Antimicrobial activity against Pseudomonas aeruginosa PAO1 assessed as inhibition of microbial growth incubated for 24 hrs by broth-microdilution assay; conditions: Pseudomonas aeruginosa, PAO1, read-out: MIC100
Staphylococcus aureus [11] = test: Antimicrobial activity against methicillin resistant Staphylococcus aureus 43300 assessed as inhibition of microbial growth incubated for 24 hrs by broth-microdilution assay
Staphylococcus aureus [12] = test: Antimicrobial activity against Staphylococcus aureus 29213 assessed as inhibition of microbial growth incubated for 24 hrs by broth-microdilution assay

C[C@@H](O)[C@H]1C(=O)N2C(C(=O)O)=C(SCCNC=N)C[C@H]12 [IMIPENEM ANHYDROUS] was tested, and the MIC (Klebsiella pneumoniae [1]) was ≥ 4 µg/mL.

In the case of C[C@@H]1[C@H](O)[C@@H](C)/C=C/C=C/C=C/C=C/C=C/C=C/C=C/[C@H](O[C@@H]2O[C@H](C)[C@@H](O)[C@H](N)[C@@H]2O)C[C@@H]2O[C@](O)(C[C@@H](O)C[C@@H](O)[C@H](O)CC[C@@H](O)C[C@@H](O)CC(=O)O[C@H]1C)C[C@H](O)[C@H]2C(=O)O [AMPHOTERICIN B], the MIC (Candida albicans [2]) is reported as 4 µg/mL (≈ 4.33 µM) and the MIC (Candida albicans [3]; read-out: MIC100) is reported as 4 µg/mL (≈ 4.33 µM).

GENTAMICIN showed an MIC100 (Klebsiella pneumoniae [1]) of 4 µg/mL.

CC1(C)CCC[C@]2(C)[C@H]3CC[C@@](C)(CC(=O)O)O[C@]3(C)CC[C@@H]12 was tested, and the MIC ([4]; ATCC 35984, read-out: MIC100) was 128 µg/mL, the MIC (Klebsiella pneumoniae [5]) was > 128 µg/mL and the MIC (Candida albicans [2]) was > 128 µg/mL. For the same molecule, the MIC (Pseudomonas aeruginosa [6]) was > 128 µg/mL, the MIC (Staphylococcus aureus [7]) was > 128 µg/mL and the MIC (Candida albicans [3]; read-out: MIC100) was > 128 µg/mL. The MIC (Klebsiella pneumoniae [1]) was > 128 µg/mL, the MIC ([8]; ATCC 12228, read-out: MIC100) was 128 µg/mL and the MIC (Staphylococcus aureus [9]) was > 128 µg/mL. The MIC (Pseudomonas aeruginosa [10]) was > 128 µg/mL.

Cc1onc(-c2ccccc2)c1C(=O)N[C@@H]1C(=O)N2[C@@H]1SC(C)(C)[C@@H]2C(=O)O [OXACILLIN] showed an MIC ([4]; ATCC 35984, read-out: MIC100) of 2 µg/mL, an MIC (Staphylococcus aureus [7]) of 2 µg/mL and an MIC ([8]; ATCC 12228, read-out: MIC100) of 2 µg/mL. It also gave an MIC (Staphylococcus aureus [11]; read-out: MIC100) of 10 µg/mL and an MIC (Staphylococcus aureus [9]) of 2 µg/mL.

In the case of NC[C@H]1O[C@H](O[C@H]2[C@H](O)[C@@H](O[C@H]3O[C@H](CO)[C@@H](O)[C@H](N)[C@H]3O)[C@H](N)C[C@@H]2N)[C@H](N)C[C@@H]1O [TOBRAMYCIN], the MIC (Klebsiella pneumoniae [5]) is reported as 2 µg/mL, the MIC (Pseudomonas aeruginosa [6]) is reported as 2 µg/mL and the MIC (Pseudomonas aeruginosa [10]) is reported as 2 µg/mL.

For CC(=O)O[C@](C)(CCC1[C@](C)(OC(C)=O)CC[C@H]2C(C)(C)CCC[C@]12C)C(=O)N=C(N)N (some centres not stated), the MIC ([4]; ATCC 35984, read-out: MIC) was 4 µg/mL, the MIC (Staphylococcus aureus [12]) was 4 µg/mL and the MIC (Candida albicans [3]; read-out: MIC) was 16 µg/mL (≈ 35.4 µM). The MIC ([8]; ATCC 12228, read-out: MIC) was 4 µg/mL and the MIC (Staphylococcus aureus [11]; read-out: MIC) was 4 µg/mL.
